These are literature values, as cited in patent US20050107279A1, “Emulsion composition” (Unilever Home & Personal Care USA, Division of Conopco, Inc., priority 2003, published 2005).

For series [1] the following is noted: AOT; range as per Sabatini et al. 1996.
For series [2] the following is noted: hydrophobic liquid.
The conditions of series [3]: hydrophobic liquid. This is another data set of the same source.

Turning to `CCCCC(CC)COC(=O)CC(C(=O)OCC(CC)CCCC)S(=O)(=O)[O-].[Na+]` (stereo not drawn) [AOT, Aerosol OT], the HLB in series [1] is recorded as 10-14.9).

Regarding `CCCCCCCC` [Octane], in series [2], the “Log P” value is given as “(Log P = 4.7)”. Also, the solubility in water result in series [3] was “Solubility = 7 × 10^−5%”.
